# According to patent US20060045884A1, “Vaccines for autoimmune and infectious disease” (Board of Regents, priority 2004, published 2006):
# Entries after “also recorded” stand apart in the source; their conditions may differ. Where two headings read alike, the source gives them in different places.
# Key:
# [1] = tested on: peptide-loaded T2 cells; assay: Induction of primary CTL responses with peptide-pulsed T2 cells and 4-hr cytotoxicity against peptide-loaded T2 cells; type: cell-based, human; details: for donors in which peptide-stimulated CTL lines killed CCNE1144-152- and CCNE2144-152-pulsed T2 cells: PBMCs from 7 HLA-A2 positive normal donors; for elicitation of peptide specific CTL lines: different donors and differing peptide concentrations; for peptide-specific lysis by CTL line generated against the MPO peptide: T2 cells loaded with 2.0 μg/mL of the same peptide; for peptide-specific lysis by CTL line generated against the peptide: T2 cells loaded with 1.0 μg/mL of the same peptide, E:T 50:1 to 6:1
# [2] = biological target: HLA-A2.1 (Homo sapiens, UniProt P04439, D140Y/D185E/D98H/E176V/E277Q/G131W/G231S/I119V/I121R/I166T/I218V/L300P/L318F/N151K/N90K/P208A/P217A/Q86G/Q94H/R138H/R169H/T345S); assay: Peptide binding: HLA-A2.1 surface expression on peptide-coated T2 cells by indirect flow cytometry; details: for Median Channel of Fluorescence of HLA-A2 Expression on T2: background HLA-A2 without peptide 22; for peptide binding to HLA-A*0201, fluorescence intensity versus positive control peptide (Influenza B Nuclear Protein): T2 cells pulsed 18 hr; for surface HLA-A2.1 expression compared with T2 cells with no added peptide: result in words
# [3] = tested on: PR1-CTL from a healthy donor; assay: Annexin V staining of PR1-CTL 16 to 18 hr after challenge with peptide-pulsed T2 cells; type: cell-based, human; details: for apoptosis of high avidity PR1-CTL: T2 cells pulsed with 20 μM peptide
# Source text: High PR1 concentration and proteinase 3-overexpressing CML cells induce apoptosis of high avidity PR1-specific CTL. […] All high avidity PR1-CTL exposed to high dose PR1 were dead after 36 to 48 hr of co-culture.
# [4] = tested on: PBMCs from HLA-A2+ CML patients; type: cell-based, human
# [5] = tested on: HLA-A2.1 positive human myeloid leukemia cells; assay: 4-hr cytotoxicity of peptide-specific CTL against leukemia cells, normal marrow and cell lines; type: cell-based; details: not non-transfected K562
# Method: CTL cytotoxicity assay. A semi-automated minicytotoxicity assay was used to determine specific lysis as described previously (Molldrem, 2000; Molldrem et al., 1996). Briefly, effector cells were prepared in doubling dilutions from 6×10^3 to 25×10^3 cells/well and were plated in 40 μl, 60-well Terasaki trays (Robbins Scientific, Sunnyvale, Calif., USA) with six replicates per dilution. Target cells (T2 cells, marrow-derived leukemic cells, or BM from a healthy donor) at a concentration of 2×10^6 cells/ml were stained with 10 μg/ml of Calcein-AM (Molecular Probes Inc.) for 60 min at 37° C. […] Wells with target cells alone and medium alone were used for maximum (max) and minimum (min.) fluorescence emission, respectively. After 4 hr incubation at 37° C. in 5% CO2, 5 μl FluoroQuench (One Lambda Inc., Canoga Park, Calif., USA) was added to each well, and the trays were centrifuged for 1 min at 60 g before measurement of fluorescence using an automated CytoFluor II plate reader (PerSeptive Biosystems, Framingham, Mass., USA). The percentage of lysis was calculated as follows: % lysis={1−[(mean experimental mission−mean min.)/(mean max−mean min.)]}×100%.
# PR1 specific CTL preferentially lyse human myeloid leukemia cells. It was next determined whether the PR1-specific CTL line was capable of lysing allogeneic human myeloid leukemia cells from HLA-A2.1 positive individuals. […]
# [6] = tested on: PBMC from HLA-A2.1+ healthy donor; assay: PR1/HLA-A2 tetramer staining of CTL elicited from healthy donor PBMC with PR1-pulsed T2 cells; type: cell-based, human
# [7] = tested on: HLA-A2+ patients with CML, AML or MDS; assay: Phase I/II PR1 peptide vaccine study; type: in vivo, human; details: 9 patients
# Source text: To test this in refractory leukemia patients, a phase I/II vaccine study was initiated. HLA-A2^+ patients with CML (interferon-resistant or relapsed after BMT), AML (smoldering relapse or ≧2nd CR) or MDS (RAEB or RAEBt) with no detectable antibodies to proteinase 3 (no detectable cANCA) were eligible. Patients that relapsed after BMT or those ineligible for BMT were also eligible for study. Pregnant patients, HIV+ patients, and those with known vasculitis were excluded. Patients were required to have immunosuppression (i.e. cyclosporine, steroids) discontinued 4 weeks prior to study entry.
# Secondarily, clinical responses were assessed by standard criteria with bone marrow biopsy, cytogenetic studies (standard chromosome banding) and molecular studies (PCR for bcr-abl or other known abnormalities such as t(15;17), inv16, etc.) 3 weeks after the last vaccination. Patients were seen and evaluated in clinic every 3 weeks during the study period. Both vialed PR1 peptide (NSC698102) and the adjuvant (Montanide ISA-51, NSC675756) were used in this study.
# The overall study was divided into two parts: Phase I consisted of nine patients treated in cohorts of three at 1 of 3 dose levels of 0.25 mg, 0.5 mg, or 1.0 mg of PR1 peptide given subcutaneously in incomplete Freund's adjuvant (Montanide ISA-51) and GM-CSF 75 mg subcutaneously every 3 weeks for 3 injections. […]
substance,measurement,setting,value
ILLDWLLEV [CCNE2144-152],donors in which peptide-stimulated CTL lines killed CCNE1144-152- and CCNE2144-152-pulsed T2 cells,[1],4 of 7
"Influenza nucleoprotein: control influenza peptide, Influenza B nucleoprotein (aa 85-94), known high binding affinity to HLA-A2.1 (KLGEFYNQMM) [reference compound]",Median Channel of Fluorescence of HLA-A2 Expression on T2,[2],194
same,apoptosis of high avidity PR1-CTL,[3],no apoptosis was observed
"NLVPMVATV [pp65 peptide, reference compound]",avidity of CTLs elicited with pp65 peptide-pulsed T2 cells,[4],high-avidity p65-specific CTLs
SLWRRPFNV [MY1],elicitation of peptide specific CTL lines,[1],No peptide specific CTL lines could be elicited
LLSYFKQPV [MY3],elicitation of peptide specific CTL lines,[1],No peptide specific CTL lines could be elicited
KLNDVLLIQL [PR7V],"peptide binding to HLA-A*0201, fluorescence intensity versus positive control peptide (Influenza B Nuclear Protein)",[2],strong peptide binding
LIQPFMFRL [MY5],elicitation of peptide specific CTL lines,[1],No peptide specific CTL lines could be elicited
RLFEQVMRI [MY4],peptide-specific lysis by CTL line generated against the MPO peptide,[1],tested similarly
KLLLALAGL [MY2],peptide-specific lysis by CTL line generated against the MPO peptide,[1],high specific lysis
ILLDWLMEV [CCNE1144-152],donors in which peptide-stimulated CTL lines killed CCNE1144-152- and CCNE2144-152-pulsed T2 cells,[1],3 of 7
same,peptide-stimulated CTL lines that killed HLA-A2 transfected K562 leukemic cell line,[5],one of 4
RLFPDFFTRV [PR2],Median Channel of Fluorescence of HLA-A2 Expression on T2,[2],273
same,surface HLA-A2.1 expression compared with T2 cells with no added peptide,[2],increased surface HLA-A2.1 expression
same,peptide-specific lysis by CTL line generated against the peptide,[1],did not demonstrate any significant cytotoxicity
"VLQELNVTV [PR1, HLA-A2.1-restricted nonamer (aa 169-177) derived from proteinase 3]",surface HLA-A2 expression on T2 cells versus PR1 concentration,[2]; PR1 from 2 μM and 200 μM,increases linearly
same,Median Channel of Fluorescence of HLA-A2 Expression on T2,[2],294
same,surface HLA-A2.1 expression compared with T2 cells with no added peptide,[2],increased surface HLA-A2.1 expression
same,peptide-specific lysis by CTL line generated against the peptide,[1],high specific lysis
same,high intensity PR1/HLA-A2 tetramer-staining CTL elicited,[6]; 0.2 μM PR1 weekly for 28 days,1.3%
same,median channel of flourescence (MCF) of tetramer staining,[6]; 20 μM PR1,93
same,low avidity PR1-specific CTL elicited,[6]; 20 μM PR1 weekly for 28 days,3.1%
same,bulk culture CTL double-positive for anti-CD8 and PR1-tetramer,[6]; 32 day-old PR1-stimulated CTL culture,4.3%
same,fraction of CTL line specific for PR1 (CD8/PR1-tetramer),[6]; day 17 CTL line elicited against PR1,2.4%
same,PR1-CTL induced,[6]; ≦0.02 μM PR1,< 0.1%
same,avidity of PR1-CTL that could be elicited from CML patients,"[4]; CML #1, #2, #3, weekly PR1 stimulation",Only low-avidity PR1-CTLs could be elicited; also recorded: Only low avidity PR1-CTL could be elicited
same,lowest PR1 concentration eliciting PR1-CTLs,[4]; patient 1,≥ 0.2 µM
same,lowest PR1 concentration eliciting low-avidity PR1-CTLs,[4]; patient 2,0.02 µM
same,lowest PR1 concentration eliciting low-avidity PR1-CTLs,[4]; patient 3,0.002 µM
same,apoptosis of high avidity PR1-CTL,[3],underwent apoptosis
same,apoptosis of low avidity PR1-CTL,[3]; high or low concentrations of PR1,did not undergo apoptosis
same,PR1-specific CTL immunity elicited (by tetramer staining),[7],6 of 9
same,complete remissions,[7],2 patients
KLNDILLIQL [PR7I],"peptide binding to HLA-A*0201, fluorescence intensity versus positive control peptide (Influenza B Nuclear Protein)",[2],strong peptide binding
